{"source": "patent US6592894B1", "about": "“Hydrogel-isolated cochleate formulations, process of preparation and their use for the delivery of biologically relevant molecules” (BioDelivery Sciences International, Inc., priority 1999, dated 2003)", "tested_on": "Candida albicans", "assay": "Fungicidal effect, ratio of colony forming units to total cell number", "format": "cell-based", "settings": "0.625 μg AmB/ml, after 30 hours of incubation", "protocol": "Aliquots of yeast cells (50 μl) were removed from the 96 well plates and serially diluted (up to 1:10000 for plating onto agar plates) and counted using a hemocytometer. Fifty μl of the diluted yeast cells were plated onto YPD agar plates and incubated for 24 hours at 37° C. Yeast colonies were counted using a BioRad Fluor-S Multi-Imager equipped with Quanitity One™ software.\nYeast cells treated with AmBisome, AmB/DMSO and AmB/cochleates (0.625 μg AmB/ml) were examined for the ratio of colony forming units to total cell number after 30 hours of incubation. […] The AmBisome was not as effective, resulting in 52% yeast viability (FIG. 7)."}
{"compound": "C[C@@H]1[C@H](O)[C@@H](C)/C=C/C=C/C=C/C=C/C=C/C=C/C=C/[C@H](O[C@@H]2O[C@H](C)[C@@H](O)[C@H](N)[C@@H]2O)C[C@@H]2O[C@](O)(C[C@@H](O)C[C@@H](O)[C@H](O)CC[C@@H](O)C[C@@H](O)CC(=O)O[C@H]1C)C[C@H](O)[C@H]2C(=O)O", "note": "[AmB/DMSO, Amphotericin B]", "values": [{"measurement": "yeast viability (ratio of colony forming units to total cell number)", "value": 12, "unit": "%"}]}
